Where a name gives a salt, the structure may show the parent alone.

LC retention time data for 63 molecules are collected here from the RepoRT retention time repository (doi:10.1016/j.chroma.2019.01.023).

Holding throughout (conditions): stereoisomer not certain
The nature of data set [1]: RP, Phenomenex Kinetex C18, 150 × 2.1 mm, 1.7 µm, 30 °C, 0.3 mL/min, estimated dead time 1.1 min; A: water + 0.1% formic acid, pH 3; B: acetonitrile + 0.1% formic acid, pH 3; gradient (min/%B) 0/2 14/100 17/100 17.1/2 25/2.
Data set [2] is described as follows: HILIC, Merck SeQuant ZIC-pHILIC, 150 × 2.1 mm, 5 µm, 40 °C, 0.3 mL/min, estimated dead time 1.1 min; A: acetonitrile; B: water + 2.8 mM ammonium formate, pH 9; gradient (min/%B) 0/5 1/5 10/51 13/51 13.1/5 20/5.
Data set [3] in a line: HILIC, Waters ACQUITY UPLC BEH Amide, 150 × 2.1 mm, 1.7 µm, 40 °C, 0.5 mL/min, estimated dead time 0.66 min; A: 5% water + 95% acetonitrile; B: 70% water + 30% acetonitrile + 10 mM ammonium formate, pH 6.5; gradient (min/%B) 0/0 2/0 20/70 23/70 24/0 31/0.

Turning to `O=C(O)c1ccc2ccccc2c1[O-]` [1-HYDROXY-2-NAPHTHOATE], the LC retention time in data set [1] is 9.28 min; in data set [2], 1.49 min.

`NCC(N)C(=O)O` (centres undefined) [2,3-DIAMINOPROPIONATE]: in data set [1], the LC retention time is 2.37 min.

As to `O=C(O)c1cccc(O)c1[O-]` [2,3-DIHYDROXYBENZOATE], the figures for the LC retention time in data set [1] and in data set [2] were 4.92 min and 5.74 min, respectively.

As for `O=C(O)c1cc(O)ccc1[O-]` [2,5-DIHYDROXYBENZOATE], the LC retention time in data set [1] is 4.46 min; in data set [2], 6.29 min.

With `CC(=O)N[C@@H]1[C@@H](O)[C@H](O)[C@@H](CO)O[C@H]1N` [2-ACETAMIDO-2-DEOXY-BETA-D-GLUCOSYLAMINE], in data set [1], the LC retention time is 9.58 min.

As for `CCC(O)C(=O)[O-]` (centres undefined) [2-HYDROXYBUTYRATE], the LC retention time in data set [1] is 2.37 min.

As for `CCCCCCCCCC(C)=O` [2-UNDECANONE], the LC retention time in data set [1] was 8.62 min.

As for `O=C(O)C(O)c1ccc(O)c(O)c1` (centres undefined) [3,4 DIHYDROXYMANDELATE], the figures for the LC retention time in data set [1] and in data set [2] were 1.7 min and 8.57 min, respectively.

On to `O=C(O)Cc1ccc(O)c(O)c1` [3,4-DIHYDROXYPHENYLACETATE], for which the LC retention time in data set [1] was 3.93 min; in data set [2], 7.81 min.

Regarding `OCC(O)c1ccc(O)c(O)c1` (centres undefined) [3,4-DIHYDROXYPHENYLGLYCOL], the figures for the LC retention time in data set [1] and in data set [2] were 1.82 min and 6.22 min, respectively.

On to `O=C(O)c1cccc([O-])c1` [3-HYDROXYBENZOATE], for which the LC retention time in data set [1] was 4.87 min; in data set [2] it was 6.39 min.

Turning to `O=C(O)Cc1cccc(O)c1` [3-HYDROXYPHENYLACETATE], the values for the LC retention time in data set [1] and in data set [2] were 4.82 min and 5.88 min, respectively.

As for `COc1cc(C(O)C(=O)O)ccc1O` (centres undefined) [3-METHOXY-4-HYDROXYMANDELATE], the LC retention time is 2.94 min in data set [1] and 6.9 min in data set [2].

As for `Cc1ccc(O)c(O)c1` [4-METHYLCATECHOL], the LC retention time in data set [1] was 3.31 min.

Take `Nc1ncnc2c1ncn2C1OC(COP(=O)(O)O)C(OP(=O)(O)O)C1O` (centres undefined) [ADENOSINE 3',5'-DIPHOSPHATE]: the LC retention time in data set [1] was 1.36 min.

With `Nc1ncnc2c1ncn2C1OC(COP(=O)(O)O)C(O)C1O` (centres undefined) [ADENOSINE-MONOPHOSPHATE], the LC retention time is 1.41 min in data set [1] and 8.23 min in data set [2].

For `NC(=O)c1ncn(C2OC(COP(=O)(O)O)C(O)C2O)c1N` (centres undefined) [AICAR], the LC retention time in data set [1] is 1.38 min; in data set [2], 8.82 min.

In the case of `Nc1ccccc1S(=O)(=O)O` [ANILINE-2-SULFONATE], the LC retention time was 2.04 min in data set [1] and 5.89 min in data set [2].

Regarding `O=Cc1ccccc1` [BENZALDEHYDE], the LC retention time in data set [1] is 3.93 min.

`NC(=O)c1ccc[n+](C2OC(COP(=O)(O)OP(=O)([O-])OCC3OC(n4cnc5c(N)ncnc54)C(O)C3O)C(O)C2O)c1` (stereo not drawn) [BETA-NICOTINAMIDE ADENINE DINUCLEOTIDE]: the LC retention time in data set [1] was 1.4 min; in data set [2], 8.52 min.

As to `CC(O)(CC(=O)O)C(=O)O` (centres undefined) [CITRAMALATE], the LC retention time was 1.94 min in data set [1] and 8.8 min in data set [2].

As for `O=C(O)CC(O)(CC(=O)O)C(=O)O` [CITRATE], the LC retention time in data set [1] was 1.57 min; in data set [2], 10.2 min.

With `Nc1ncnc2c1ncn2C1CC(O)C(COP(=O)(O)O)O1` (centres undefined) [DEOXYADENOSINE MONOPHOSPHATE], the LC retention time was 1.55 min in data set [1] and 7.95 min in data set [2].

Take `Nc1ccn(C2CC(O)C(COP(=O)(O)O)O2)c(=O)n1` (centres undefined) [DEOXYCYTIDINE MONOPHOSPHATE]: the LC retention time in data set [1] is 1.4 min; in data set [2], 8.61 min.

Take `Nc1nc2c(ncn2C2CC(O)C(COP(=O)(O)O)O2)c(=O)[nH]1` (centres undefined) [DEOXYGUANOSINE-MONOPHOSPHATE]: the values for the LC retention time in data set [1] and in data set [2] were 1.67 min and 8.92 min, respectively.

As to `O=c1ccn(C2CC(O)C(COP(=O)(O)O)O2)c(=O)[nH]1` (centres undefined) [DEOXYURIDINE-MONOPHOSPHATE], the figures for the LC retention time in data set [1] and in data set [2] were 1.41 min and 8.2 min, respectively.

Take `Cc1cn(C2CC(O)C(COP(=O)(O)OP(=O)(O)OC3OC(CO)C(O)C(O)C3O)O2)c(=O)[nH]c1=O` [DTDP-D-GLUCOSE]: the LC retention time was 1.52 min in data set [1] and 8.93 min in data set [2].

For the molecule `CCC(C(=O)O)C(=O)O` [ETHYLMALONATE], the LC retention time in data set [1] was 3.46 min.

With `O=C(O)C=CC(=O)O` [FUMARATE], the LC retention time was 1.88 min in data set [1] and 9.5 min in data set [2].

`NC(CCC(=O)NC(CS)C(=O)NCC(=O)O)C(=O)O` (centres undefined) [GLUTATHIONE REDUCED]: the LC retention time in data set [1] is 1.46 min; in data set [2] it was 8.59 min.

For `Nc1nc2c(ncn2C2OC(COP(=O)(O)O)C(O)C2O)c(=O)[nH]1` (centres undefined) [GUANOSINE MONOPHOSPHATE], the LC retention time in data set [1] is 1.41 min; in data set [2] it was 9.41 min.

For the molecule `Oc1ccc(O)cc1` [HYDROQUINONE], the LC retention time in data set [1] is 4.46 min; in data set [2], 6.29 min.

For the molecule `O=S(=O)(O)Oc1c[nH]c2ccccc12` [INDOXYL SULFATE], the LC retention time in data set [1] is 4.62 min.

Consider `CCC(C)C(N)C(=O)O` (centres undefined) [ISOLEUCINE], for which the LC retention time in data set [1] was 1.9 min; in data set [2] it was 7.18 min.

Turning to `C=C(CC(=O)O)C(=O)O` [ITACONATE], the LC retention time in data set [1] is 3.16 min.

Regarding `O=C([O-])C=CC(=O)[O-]` [MALEATE], the LC retention time is 1.53 min in data set [1] and 2.45 min in data set [2].

For `O=C([O-])C(O)c1ccccc1` (centres undefined) [MANDELATE], the LC retention time is 4.45 min in data set [1] and 4.83 min in data set [2].

On to `COC1OC(CO)C(O)C(O)C1O` (centres undefined) [METHYL GALACTOSIDE], for which the results for the LC retention time in data set [3] and in data set [2] were 4.01 min and 6.42 min, respectively.

Take `CC(C(=O)O)C(=O)O` [METHYLMALONATE]: the LC retention time in data set [1] is 2.19 min.

With `OC1C(O)C(O)C(O)C(O)C1O` (centres undefined) [MYOINOSITOL], the LC retention time in data set [3] is 11 min; in data set [2] it was 9.47 min.

For the molecule `CC(=O)NC(CC(N)=O)C(=O)O` (centres undefined) [N-ACETYLASPARAGINE], the results for the LC retention time in data set [3] and in data set [2] were 8.1 min and 7.88 min, respectively.

As for `CC(=O)NC(CO)C(=O)O` (centres undefined) [N-ACETYLSERINE], the LC retention time in data set [3] was 5.57 min; in data set [2], 7.56 min.

As to `O=CNCC(=O)O` [N-FORMYLGLYCINE], the figures for the LC retention time in data set [3] and in data set [2] were 4.89 min and 7.76 min, respectively.

Consider `CNC(CC(=O)O)C(=O)O` (centres undefined) [N-METHYLASPARTATE], for which the LC retention time is 11.6 min in data set [3] and 8.28 min in data set [2].

For `CNC(CCC(=O)O)C(=O)O` (centres undefined) [N-METHYLGLUTAMATE], the LC retention time in data set [3] is 11.1 min; in data set [2], 8.12 min.

`NC(=O)c1ccc[n+](C2OC(COP(=O)(O)OP(=O)(O)OCC3OC(n4cnc5c(N)ncnc54)C(OP(=O)(O)O)C3O)C(O)C2O)c1` (centres undefined) [NADP]: in data set [1], the LC retention time is 1.41 min.

As for `NC(=O)c1ccc[n+](C2OC(COP(=O)(O)OP(=O)(O)OCC3OC(n4cnc5c(=O)[nH]cnc54)C(O)C3O)C(O)C2O)c1` (centres undefined) [NICOTINAMIDE HYPOXANTHINE DINUCLEOTIDE], the LC retention time in data set [1] is 1.45 min.

Consider `CCC(NC(=O)CCC([NH3+])C(=O)[O-])C(=O)NCC(=O)[O-]` (centres undefined) [OPHTHALMATE], for which the LC retention time in data set [1] is 1.58 min; in data set [2], 8.32 min.

Turning to `O=C([O-])c1cc(=O)[nH]c(=O)[nH]1` [OROTATE], the LC retention time in data set [3] is 3.49 min; in data set [2] it was 7.34 min.

Take `O=C(O)Cc1ccc(O)cc1` [P-HYDROXYPHENYLACETATE]: the LC retention time was 4.59 min in data set [1] and 5.76 min in data set [2].

Turning to `O=C([O-])Cc1ccccc1` [PHENYLACETATE], in data set [1], the LC retention time is 3.97 min.

As to `O=C(O)C(=O)Cc1ccccc1` [PHENYLPYRUVATE], the LC retention time is 4.94 min in data set [1] and 5.27 min in data set [2].

Regarding `O=C(O)C1CCCCN1` (centres undefined) [PIPECOLATE], the LC retention time in data set [1] was 1.38 min.

For the molecule `CC(=O)C1CCC2C3CC=C4CC(OS(=O)(=O)O)CCC4(C)C3CCC12C` (centres undefined) [PREGNENOLONE SULFATE], the LC retention time in data set [1] was 8.69 min.

For `O=C(O)C1CCCN1` (centres undefined) [PROLINE], the LC retention time in data set [3] is 8.55 min; in data set [2], 7.67 min.

For the molecule `Cc1ncc(COP(=O)(O)O)c(C=O)c1O` [PYRIDOXAL-PHOSPHATE], in data set [1], the LC retention time was 1.5 min.

`Oc1ccccc1O` [PYROCATECHOL]: the LC retention time in data set [1] is 3.77 min; in data set [2] it was 8.04 min.

For the molecule `O=C(C=Cc1ccc(O)c(O)c1)OC(Cc1ccc(O)c(O)c1)C(=O)O` (centres undefined) [ROSMARINATE], the LC retention time is 6.25 min in data set [1] and 7.55 min in data set [2].

Consider `NC(CSCC(=O)O)C(=O)O` (centres undefined) [S-CARBOXYMETHYLCYSTEINE], for which the results for the LC retention time in data set [3] and in data set [2] were 2.47 min and 6.4 min, respectively.

Regarding `OCC1OC(OC2(CO)OC(CO)C(O)C2O)C(O)C(O)C1O` (centres undefined) [SUCROSE], the LC retention time in data set [3] was 10.2 min; in data set [2] it was 8.77 min.

Consider `NCCS(=O)(=O)O` [TAURINE], for which the LC retention time in data set [3] is 8.04 min; in data set [2], 9.1 min.

Turning to `OCC1OC(OC2OC(CO)C(O)C(O)C2O)C(O)C(O)C1O` (centres undefined) [TREHALOSE], the LC retention time is 11.3 min in data set [3] and 9.23 min in data set [2].

As to `CC(C)C(N)C(=O)O` (centres undefined) [VALINE], the LC retention time in data set [3] is 8.75 min; in data set [2], 7.72 min.
